Experimental data taken from paper PMC3508294 (Journal of medicinal chemistry, 2012).

T1: CARM1 (Mus musculus, UniProt Q9WVG6)
T1 sequence (Q9WVG6 1-608): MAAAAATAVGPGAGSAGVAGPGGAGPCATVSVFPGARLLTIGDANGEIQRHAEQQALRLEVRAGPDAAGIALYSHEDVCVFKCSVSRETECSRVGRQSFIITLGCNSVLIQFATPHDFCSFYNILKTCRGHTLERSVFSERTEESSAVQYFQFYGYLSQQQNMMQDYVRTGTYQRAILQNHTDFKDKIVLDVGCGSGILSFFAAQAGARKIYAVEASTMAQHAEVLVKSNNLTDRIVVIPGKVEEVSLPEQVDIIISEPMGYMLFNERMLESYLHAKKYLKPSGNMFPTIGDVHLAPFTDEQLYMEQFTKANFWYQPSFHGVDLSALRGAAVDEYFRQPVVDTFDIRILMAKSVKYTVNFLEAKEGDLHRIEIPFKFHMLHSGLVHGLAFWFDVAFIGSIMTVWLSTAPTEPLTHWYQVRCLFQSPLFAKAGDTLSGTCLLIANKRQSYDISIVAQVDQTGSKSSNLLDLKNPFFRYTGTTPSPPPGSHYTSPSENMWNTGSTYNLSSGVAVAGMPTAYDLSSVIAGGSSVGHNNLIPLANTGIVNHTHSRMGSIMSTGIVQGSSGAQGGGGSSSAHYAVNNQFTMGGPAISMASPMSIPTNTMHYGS

T2: CARM1/PRMT4 (Mus musculus, UniProt Q9WVG6)
T2 sequence (Q9WVG6 1-608): T1 sequence (Q9WVG6 1-608)

T3: full length GST-tagged CARM1 (UniProt Q9WVG6 1-608)
T3 sequence (looked up): T1 sequence (Q9WVG6 1-608)

B1: PABP1(437–488) (domain or fragment, human, UniProt P11940 437-488, looked up)
chain: WTAQGARPHPFQNMPGAIRPAAPRPPFSTMRPASSQVPRVMSTQRVANTSTQ

What was measured:
[1] = tested on: calf thymus histone H3; assay: SPR binding to immobilized histone H3; conditions: compounds injected at 50–10000 nM
[2] = tested on: CARM1 (fPABP1 methylation) in HEK293 cells; assay: Cellular methylation assay, Tet-inducible fPABP1 in HEK293 cells; format: cell-based, human; conditions: HEK293, Tet-induced fPABP1; 50 µM compound; 24 h; anti-methyl-PABP1 immunoblot
[3] = target: PABP1(437–488) (Homo sapiens, UniProt P11940); assay: SPR binding to immobilized PABP1; conditions: compounds injected at 50–10000 nM
[4] = target: T1, CARM1; assay: SPR binding to immobilized full length GST-tagged CARM1; conditions: for Effect on affinity of substrate (H3 or PABP1) for CARM1/SAH complex: 4 µM compound, 200 µM SAH; for Interaction with immobilized CARM1 (in words): 50–10000 nM, in the presence and in absence of SAH
[5] = target: T2, CARM1/PRMT4; assay: CARM1 in vitro methylation assay, PABP1 as substrate; format: biochemical; conditions: 3, 6, 12, 25, 50 and 100 µM
[6] = target: T2, CARM1/PRMT4; assay: CARM1 in vitro methylation assay, histone H3 as substrate; format: biochemical; conditions: 50 µM
[7] = target: human recombinant PRMT1 (hPRMT1) (Homo sapiens, UniProt Q99873); assay: PRMT1 in vitro inhibition assay, Npl3 as substrate; conditions: fixed doses of 10 µM and 50 µM
[8] = target: T3, full length GST-tagged CARM1; assay: SPR

Chain of human recombinant PRMT1 (hPRMT1) (Q99873 whole entry): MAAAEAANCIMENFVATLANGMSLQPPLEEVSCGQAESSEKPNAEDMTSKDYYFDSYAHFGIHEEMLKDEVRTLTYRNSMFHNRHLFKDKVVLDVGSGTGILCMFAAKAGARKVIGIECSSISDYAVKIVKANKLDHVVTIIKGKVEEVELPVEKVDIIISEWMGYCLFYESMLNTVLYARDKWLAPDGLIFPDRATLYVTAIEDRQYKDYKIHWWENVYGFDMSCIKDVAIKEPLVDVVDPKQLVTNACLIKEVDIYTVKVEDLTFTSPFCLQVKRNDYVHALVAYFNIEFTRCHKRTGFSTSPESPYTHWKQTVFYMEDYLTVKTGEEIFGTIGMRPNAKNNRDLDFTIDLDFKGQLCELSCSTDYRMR

Molecule | Interaction with immobilized histone H3 (in words) [1] | Methylation of fPABP1 in cells [2] | Interaction with immobilized PABP1(437–488) (in words) [3] | Effect on affinity of substrate (H3 or PABP1) for CARM1/SAH complex [4] | Interaction with immobilized CARM1 (in words) [4] | Effect on CARM1 enzyme activity, dose dependence [5] | Effect on CARM1-catalyzed H3 methylation (in words) [6] | Inhibition of PRMT1 [7] | Kd [8] [nM]
CCOC(=O)c1cc2cc(NC(=O)CNC(=O)Nc3ccc(C#N)cc3)ccc2[nH]1 [3g, ethyl 5-(2-(3-(4-cyanophenyl)ureido)acetamido)-1H-indole-2-carboxylate] | no interaction | strongly increase the methylation | no interaction | affects the affinity | no interaction |  |  |  | 
CCOC(=O)c1cc2cc(NC(=O)CNC(=O)Nc3ccc(C)cc3)ccc2[nH]1 [3c, ethyl 5-(2-(3-(p-tolyl)ureido)acetamido)-1H-indole-2-carboxylate] | no interaction | strongly increase the methylation | no interaction | significantly affect the affinity | no interaction |  |  |  | 
CCOC(=O)c1cc2cc(NC(=O)CNC(=O)Nc3ccc([N+](=O)[O-])cc3)ccc2[nH]1 [1k, ethyl 5-(2-(3-(4-nitrophenyl)ureido)acetamido)-1H-indole-2-carboxylate] | no interaction |  | no interaction | affects the affinity | no interaction | marked and dose-dependent increase | marked activation | scarcely active | 
O=c1oc2c(O)c(O)cc3c(=O)oc4c(O)c(O)cc1c4c23 [ellagic acid, reference compound] |  |  | barely perceptible |  |  |  |  |  | 
COC(=O)c1c[nH]c2ccc(NC(=O)CNC(=O)Nc3ccc(OC)cc3)cc12 [4e, methyl 5-(2-(3-(4-methoxyphenyl)ureido)acetamido)-1H-indole-3-carboxylate] | no interaction |  | no interaction | significantly affect the affinity | no interaction |  |  |  | 
O=C(Nc1ccc2c(O)cc(S(=O)(=O)O)cc2c1)Nc1ccc2c(O)cc(S(=O)(=O)O)cc2c1 [AMI-1, reference compound] |  |  | barely perceptible |  |  |  |  |  | 
B1 |  |  |  |  |  |  |  |  | 158
